Data on 18 molecules can be found in US20140057953A1, “BIARYL DERIVATIVES AS SELECTIVE 17BETA-HYDROXYSTEROID DEHYDROGENASE TYPE 2 INHIBITORS” (priority 2011, published 2014).

The structures appear in SMILES notation.

One assay concerns the target T1, 17β-HSD1 (Homo sapiens, UniProt P14061).
T1 construct: For the partial purification of 17β-HSD1, the cytosolic fraction was precipitated with ammonium sulfate; from tissue; host or cells: human placenta, cytosolic fraction
T1 sequence (P14061 1-328): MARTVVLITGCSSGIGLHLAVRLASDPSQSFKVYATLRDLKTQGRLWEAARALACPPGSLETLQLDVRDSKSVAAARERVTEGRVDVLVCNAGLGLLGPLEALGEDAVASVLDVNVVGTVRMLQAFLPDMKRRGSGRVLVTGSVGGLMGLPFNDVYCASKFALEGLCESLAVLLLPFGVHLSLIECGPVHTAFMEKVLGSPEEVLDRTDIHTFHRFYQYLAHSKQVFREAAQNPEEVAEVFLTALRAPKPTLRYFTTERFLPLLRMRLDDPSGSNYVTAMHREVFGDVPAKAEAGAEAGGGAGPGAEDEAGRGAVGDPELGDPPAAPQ
Briefly: Inhibition of 17β-HSD1 in cell-free assay. In kind it is biochemical. The note with it: human placenta, cytosolic fraction, substrate E1 500 nM, cofactor NADH 500 μM; for % inhibition 17β-HSD1 / inhibition at 1 µM: inhibitor concentration 1 μM. On the procedure: (§1) Fresh human placenta was homogenized. Cytosolic and microsomal fractions were separated by centrifugation at 1000 g, 10000 g and 150000 g. 17β-HSD2 was obtained directly from the microsomal fraction. For the partial purification of 17β-HSD1, the cytosolic fraction was precipitated with ammonium sulfate. Aliquots containing 17β-HSD1 or 17β-HSD2 were stored frozen.
The 17β-HSD1 inhibition assay was performed similarly to the 17β-HSD2 test. The cytosolic fraction was incubated with NADH [500 μM], test compound and a mixture of unlabelled- and [^3H]-E1 (final concentration: 500 nM, 0.15 μCi) for 10 min at 37° C. Further treatment of the samples and HPLC separation was carried out as mentioned above for 17β-HSD2.

Another assay concerns the target ERβ (Homo sapiens, UniProt Q92731). Briefly: ER affinity assay (ERβ), [3H]-E2 displacement. The following applies: Relative Binding Affinity, E2 = 100%; recombinant human protein. The protocol: (§2) The binding affinity of selected compounds to the ERα and ERβ was determined according to Zimmermann et al. (Zimmermann, J. et al., 3. Steroid Biochem. Mol. Biol., 94:57-66 (2005)) using recombinant human proteins. Briefly, 0.25 μM of ERα or ERβ, respectively, were incubated with [^3H]-E2 (10 nM) and test compound for 1 h at room temperature. The potential inhibitors were dissolved in DMSO (5% final concentration). Evaluation of non-specific-binding was performed with diethylstilbestrol (10 μM). After incubation, ligand-receptor complexes were selectively bound to hydroxyapatite (5 g/60 ml TE-buffer). The formed complex was separated, washed and resuspended in ethanol. For radiodetection, scintillator cocktail (Quickszint 212, Zinsser Analytic, Frankfurt) was added and the samples were measured in a liquid scintillation counter (Rack Beta Primo 1209, Wallac, Turku). […] The compound concentration to displace 50% of the receptor bound [^3H]-E2 were determined. Unlabelled E2 was used as a reference. For determination of the relative binding affinity (RBA) the ratio was calculated according to the following equation: […]
(§3) After the assay was established and validated a modification was made to increase throughput. […] Results were reported as RBA ranges.

The next assay concerns the target T2, ERα (Homo sapiens, UniProt P03372).
T2 sequence (P03372 1-595): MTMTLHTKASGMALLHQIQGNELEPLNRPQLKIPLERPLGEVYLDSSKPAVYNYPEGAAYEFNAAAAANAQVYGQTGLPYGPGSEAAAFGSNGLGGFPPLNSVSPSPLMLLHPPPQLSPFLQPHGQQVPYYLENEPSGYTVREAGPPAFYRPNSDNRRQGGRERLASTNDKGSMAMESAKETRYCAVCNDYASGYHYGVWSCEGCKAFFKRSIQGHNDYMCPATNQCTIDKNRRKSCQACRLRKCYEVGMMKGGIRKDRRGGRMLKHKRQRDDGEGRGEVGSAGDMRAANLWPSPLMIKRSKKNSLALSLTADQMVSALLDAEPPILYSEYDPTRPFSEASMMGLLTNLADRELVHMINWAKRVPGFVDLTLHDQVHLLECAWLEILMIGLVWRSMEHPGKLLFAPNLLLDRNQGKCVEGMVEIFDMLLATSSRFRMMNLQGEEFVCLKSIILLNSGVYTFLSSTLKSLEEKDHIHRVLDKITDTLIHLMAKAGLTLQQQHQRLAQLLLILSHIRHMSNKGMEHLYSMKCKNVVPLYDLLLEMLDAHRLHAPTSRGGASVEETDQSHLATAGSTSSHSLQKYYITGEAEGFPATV
Briefly: ER affinity assay (ERα), [3H]-E2 displacement. The note with it: Relative Binding Affinity, E2 = 100%; recombinant human protein. On the procedure:
as §2, §3

In the next assay the target is T3, 17β-HSD2 (Homo sapiens, UniProt P37059).
T3 sequence (P37059 1-387): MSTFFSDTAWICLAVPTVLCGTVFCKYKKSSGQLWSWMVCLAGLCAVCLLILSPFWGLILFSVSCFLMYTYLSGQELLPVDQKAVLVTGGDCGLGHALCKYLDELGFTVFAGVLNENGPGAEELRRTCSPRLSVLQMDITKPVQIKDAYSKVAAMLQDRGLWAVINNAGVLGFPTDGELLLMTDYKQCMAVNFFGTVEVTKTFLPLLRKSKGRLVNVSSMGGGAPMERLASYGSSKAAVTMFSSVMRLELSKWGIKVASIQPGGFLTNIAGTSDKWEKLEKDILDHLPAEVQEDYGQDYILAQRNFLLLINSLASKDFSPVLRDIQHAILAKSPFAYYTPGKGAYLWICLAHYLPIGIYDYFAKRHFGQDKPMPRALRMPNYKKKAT
Briefly: Inhibition of 17β-HSD2 in cell-free assay. The note with it: human placenta, microsomal fraction, substrate E2 500 nM, cofactor NAD+ 1500 μM; for inhibition at 1 µM / % inhibition 17β-HSD2: inhibitor concentration 1 μM. More on the design: 17β-HSD2 was obtained directly from the microsomal fraction; from tissue; host or cells: human placenta, microsomal fraction. In kind it is biochemical. On the procedure: as §1
Inhibitor stock solutions were prepared in DMSO. Final concentration of DMSO was adjusted to 1% in all samples. The enzymatic reaction was started by addition of a mixture of unlabelled- and [^3H]-E2 (final concentration: 500 nM, 0.11 μCi). After 20 min at 37° C., the incubation was stopped with HgCl2 and the mixture was extracted with ether. After evaporation, the steroids were dissolved in acetonitrile. E1 and E2 were separated using acetonitrile/water (45:55) as mobile phase in a C18 RP chromatography column (Nucleodur C18, 3 μm, Macherey-Nagel, Duren) connected to a HPLC-system (Agilent 1100 Series, Agilent Technologies, Waldbronn). Detection and quantification of the steroids were performed using a radioflow detector (Berthold Technologies, Bad Wildbad). The conversion rate was calculated according to the following equation: […]

Sequence of ERβ (Q92731 whole entry): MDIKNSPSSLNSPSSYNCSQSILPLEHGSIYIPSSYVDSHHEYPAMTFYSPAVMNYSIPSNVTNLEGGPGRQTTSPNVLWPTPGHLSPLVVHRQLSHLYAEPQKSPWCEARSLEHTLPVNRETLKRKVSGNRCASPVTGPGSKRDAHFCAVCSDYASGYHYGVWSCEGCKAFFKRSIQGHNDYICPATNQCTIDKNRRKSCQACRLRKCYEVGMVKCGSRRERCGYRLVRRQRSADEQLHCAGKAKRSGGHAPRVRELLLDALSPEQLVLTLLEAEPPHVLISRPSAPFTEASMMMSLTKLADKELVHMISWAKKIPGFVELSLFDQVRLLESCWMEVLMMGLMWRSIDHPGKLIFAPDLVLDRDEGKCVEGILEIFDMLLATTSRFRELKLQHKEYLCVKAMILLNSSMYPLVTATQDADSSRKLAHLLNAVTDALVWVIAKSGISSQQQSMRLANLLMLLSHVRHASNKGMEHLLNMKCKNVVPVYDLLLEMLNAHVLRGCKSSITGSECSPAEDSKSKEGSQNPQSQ

For the molecule `COc1cccc(CN(C)C(=O)c2ccc(-c3cccc(C)c3)cc2)c1` [compound 3, N-(3-Methoxybenzyl)-N,3′-dimethylbiphenyl-4-carboxamide], the IC50 (usually the concentration needed to halve the response being measured) against 17β-HSD1 is greater than 100 µM; at 17β-HSD2 it was 0.265 µM. For the same molecule, the “ERβ RBA (%)” value on ERβ is on record as less than 0.1%. Also, the “ERα RBA (%)” value on ERα is on record as less than 0.1%.
For `COc1cccc(-c2cccc(C(=O)N(C)c3cccc(OC)c3)c2)c1` [compound 11, 3′-Methoxy-N-(3-methoxyphenyl)-N-methylbiphenyl-3-carboxamide], the half-maximal inhibitory concentration (IC50) was greater than 60 µM against 17β-HSD1 and 0.517 µM against 17β-HSD2. For the same molecule, the “ERβ RBA (%)” value at ERβ is less than 0.1%. Besides, on ERα, the “ERα RBA (%)” value is listed as less than 0.1%.
Turning to `COc1cccc(CCN(C)C(=O)c2ccc(-c3cccc(OC)c3)s2)c1` [compound 17, N-(3-Methoxyphenethyl)-5-(3-methoxyphenyl)-N-methylthiophene-2-carboxamide], the “% inhibition 17β-HSD1” value on 17β-HSD1 was “n.i.^e”. Besides, at 17β-HSD2, the inhibition – broadly, the share of the control response that was lost under treatment – at 1 µM was found to be 31%.
Turning to `CN(CCc1cccc(O)c1)C(=O)c1ccc(-c2cccc(O)c2)s1` [compound 18, N-(3-Hydroxyphenethyl)-5-(3-hydroxyphenyl)-N-methylthiophene-2-carboxamide], the figures for the inhibition at 1 µM against 17β-HSD1 and against 17β-HSD2 were 23% and 37%, respectively.
The matching figures for `COc1cccc(CCN(C)C(=O)c2ccc(-c3ccccc3)s2)c1` [compound 19, N-(3-Methoxyphenethyl)-N-methyl-5-phenylthiophene-2-carboxamide]: 11% and 18%.
`CN(CCc1cccc(O)c1)C(=O)c1ccc(-c2ccccc2)s1` [compound 20, N-(3-Hydroxyphenethyl)-N-methyl-5-phenylthiophene-2-carboxamide]: the “% inhibition 17β-HSD1” value on 17β-HSD1 is given as “n.i.^e”. At 1 µM the inhibition against 17β-HSD2 was 11%.
As to `COc1cccc(CCN(C)C(=O)c2ccc(-c3cccc(F)c3)s2)c1` [compound 21, 5-(3-Fluorophenyl)-N-(3-methoxyphenethyl)-N-methylthiophene-2-carboxamide], the “% inhibition 17β-HSD1” value at 17β-HSD1 is on record as “n.i.^e”. For the same molecule, the “% inhibition 17β-HSD2” value at 17β-HSD2 was “n.i.^e”.
In the case of `CN(CCc1cccc(O)c1)C(=O)c1ccc(-c2cccc(F)c2)s1` [compound 22, 5-(3-Fluorophenyl)-N-(3-hydroxyphenethyl)-N-methylthiophene-2-carboxamide], the figures for the inhibition at 1 µM on 17β-HSD1 and at 17β-HSD2 were 12% and 17%, respectively.
`COc1cccc(CN(C)C(=O)c2ccc(-c3cccc(OC)c3)s2)c1` [compound 23, N-(3-Methoxybenzyl)-5-(3-methoxyphenyl)-N-methylthiophene-2-carboxamide]: the IC50 against 17β-HSD1 is greater than 100 µM; against 17β-HSD2, 0.37 µM. Besides, the “ERβ RBA (%)” value on ERβ is reported as less than 0.1%. In addition, the “ERα RBA (%)” value on ERα was less than 0.1%.
Regarding `CN(Cc1cccc(O)c1)C(=O)c1ccc(-c2cccc(O)c2)s1` [compound 24, N-(3-Hydroxybenzyl)-5-(3-hydroxyphenyl)-N-methylthiophene-2-carboxamide], the IC50 against 17β-HSD1 is greater than 5.45 µM; on 17β-HSD2, 0.394 µM. Besides, the “ERβ RBA (%)” value at ERβ is given as less than 0.1%. The “ERα RBA (%)” value at ERα is reported as less than 0.1%.
`CN(Cc1cccc(O)c1)C(=O)c1ccc(-c2ccc(O)cc2)s1` [compound 26, N-(3-Hydroxybenzyl)-5-(4-hydroxyphenyl)-N-methylthiophene-2-carboxamide]: the IC50 was 5.11 µM at 17β-HSD1 and 0.335 µM at 17β-HSD2. Moreover, the “ERβ RBA (%)” value at ERβ is less than 0.1%. Further, the “ERα RBA (%)” value on ERα is reported as less than 0.1%.
Turning to `COc1cccc(CN(C)C(=O)c2ccc(-c3ccccc3OC)s2)c1` [compound 27, N-(3-Methoxybenzyl)-5-(2-methoxyphenyl)-N-methylthiophene-2-carboxamide], the “% inhibition 17β-HSD1” value on 17β-HSD1 is given as “n.i.^e”. The same molecule showed an inhibition at 1 µM at 17β-HSD2 of 48%.
`COc1cccc(CN(C)C(=O)c2ccc(-c3ccc(C#N)cc3)s2)c1` [compound 31, 5-(4-Cyanophenyl)-N-(3-methoxybenzyl)-N-methylthiophene-2-carboxamide]: at 17β-HSD1, the “% inhibition 17β-HSD1” value is on record as “n.i.^e”. For the same molecule, the “% inhibition 17β-HSD2” value at 17β-HSD2 was “n.i.^e”.
Turning to `CN(Cc1cccc(O)c1)C(=O)c1ccc(-c2cccc(F)c2)s1` [compound 41, 5-(3-Fluorophenyl)-N-(3-hydroxybenzyl)-N-methylthiophene-2-carboxamide], the values for the IC50 on 17β-HSD1 and at 17β-HSD2 were 3.15 µM and 0.326 µM, respectively.
In the case of `COc1cccc(N(C)C(=O)c2ccc(-c3ccc(OC)cc3OC)s2)c1` [compound 57, 5-(2,4-Dimethoxyphenyl)-N-(3-methoxyphenyl)-N-methylthiophene-2-carboxamide], the results for the IC50 on 17β-HSD1 and at 17β-HSD2 were 1.93 µM and 0.313 µM, respectively.
For `COc1cccc(N(C)C(=O)c2ccc(-c3ccc(F)c(OC)c3)s2)c1` [compound 62, 5-(4-Fluoro-3-methoxyphenyl)-N-(3-methoxyphenyl)-N-methylthiophene-2-carboxamide], the IC50 against 17β-HSD1 is greater than 100 µM; against 17β-HSD2, 0.726 µM.
For `COc1ccc(N(C)C(=O)c2ccc(-c3cccc(OC)c3F)s2)cc1` [compound 73, 5-(2-Fluoro-3-methoxyphenyl)-N-(4-methoxyphenyl)-N-methylthiophene-2-carboxamide], the inhibition at 1 µM amounted to 18% against 17β-HSD1 and 49% at 17β-HSD2.
On to `COc1cccc(-c2ccc(C(=O)N(C)c3cccc(-c4ccccc4)c3)s2)c1` [compound 76, N-(Biphenyl-3-yl)-5-(3-methoxyphenyl)-N-methylthiophene-2-carboxamide], for which the figures for the IC50 against 17β-HSD1 and at 17β-HSD2 were 1.11 µM and 0.137 µM, respectively.
